Literature values, collected in patent US20240261294A1, “METHOD FOR TREATING IDH INHIBITOR-RESISTANT SUBJECTS” (Eli Lilly and Company, priority 2021, published 2024).

Tested on: IDH2-Q316E and IDH2-1319M
Conditions: preclinical studies; cited from earlier work

## CC(C)(O)CNc1nc(Nc2ccnc(C(F)(F)F)c2)nc(-c2cccc(C(F)(F)F)n2)n1 [enasidenib]
  binding and inhibition of the mutant enzymes: no longer able to bind and inhibit the mutant enzymes
